Reference: article PMC6773697, “Antileukemic activity of novel adenosine derivatives” (Scientific Reports, 2019)

What was measured:
[1] = test system: leukemic cells (HL-60, MOLT-4, THP-1); assay: XTT cytotoxicity assay, leukemic cells overall; type: cell-based, human; conditions: for cytotoxicity (in words): XTT, leukemic cell lines
Protocol: (§1) The cytotoxic activity test with XTT (sodium 3′-[1-(phenylaminocarbonyl)- 3,4-tetrazolium]-bis (4-methoxy-6-nitro) benzene sulfonic acid hydrate) is a colorimetric method for determining the parameters associated with cell viability. The cytotoxicity in HL-60, THP-1, MOLT-4, and HMEC-1 cells was measured by the XTT assay. XTT is reduced to formazan by the mitochondrial respiratory chain oxidoreductase, which is active only in living cells. The formed crystals of formazan are dissolved directly in the medium. The amount of product is proportional to the number of live cells.
(§2) The IC50 parameter was determined by dividing the mean absorbance values of the drug-treated samples by those of control cells and defined as the drug concentration causing a 50% reduction of cell viability relative to the control. It was calculated using the “Ed50v10(1)” computer application. Cells were plated in 96-well plates at a density of 15 × 10^3 cells in 100 μL culture medium. Drugs were then added at a concentration range of 10 nM–10,000 nM to obtain a final volume of the mixture of 150 μL. Some cells were preincubated with an ATR kinase inhibitor (VE-821) for 1 h at 37 °C before adding the tested compounds. In this case drugs were added at a concentration range of 10 nM–300 nM. For the XTT assay, after 48 h of incubation, the plates were centrifuged at 1,500 rpm for 10 min at 4 °C, the culture medium was removed, and the cells were suspended in 100 mm^3 of HBSS (Hank’s Buffered Salt Solution) containing 140 mM NaCl, 5 mM KCl, 0.8 mM MgCl2, 1.8 mM CaCl2, 1 mM Na2HPO4, 10 mM HEPES (N- (2-hydroxyethyl) -piperazine-N′- (2-ethanesulfonic acid), and 1% glucose at pH 7.4. Then, 50 μL of XTT solution (in PBS) was added to a final concentration of […]. In addition, PMS (phenazine methosulphate) - methyl dibenzo-N-methylpyrazine sulphate (0.383 mg/cm^3) was used, which was combined with XTT solution at a ratio of 1:50. After 4 h of incubation with XTT, absorbance was measured at a wavelength λ = 450 nm and reference wavelength λ = 690 nm with a microplate reader (BioTek, Winooski, VT, USA).

HL-60 cells [2] = assay: XTT cytotoxicity assay, HL-60; type: cell-based; conditions: Homo sapiens, 48 h incubation, none in the picture
Protocol: as §1, §2

HMEC-1 cells = assay: XTT cytotoxicity assay, HMEC-1 (normal dermal endothelium); type: cell-based; conditions: Homo sapiens, 48 h incubation, none in the picture
Protocol: as §1, §2

THP-1 cells [3] = assay: XTT cytotoxicity assay, THP-1; type: cell-based, human; conditions: Homo sapiens, THP-1; XTT, 48 h incubation, none in the picture
Protocol: as §1, §2

MOLT-4 cells = assay: XTT cytotoxicity assay, MOLT-4; type: cell-based, human; conditions: Homo sapiens, MOLT-4; XTT, 48 h incubation, none in the picture
Protocol: as §1, §2

dCK in HL-60 cells = assay: Deoxycytidine kinase activity, HL-60; type: cell-based, human; conditions: HL-60, 24 h incubation
Protocol: (§3) Deoxycytidine kinase activity was measured in accordance with the manufacturer’s protocol. The cells, at final concentration were plated at 1 × 10^6 cells per 24-well plates and cultured with the tested compounds for 24 h. Some cells were preincubated with an ATR kinase inhibitor (VE-821) for 1 h at 37 °C before adding the tested compounds. After drug treatment, the cells were washed with PBS and resuspended in an ice-cold cytosol extraction buffer containing 1 mM phenylmethylsulfonyl fluoride (PMSF) and a protease inhibitor cocktail. The cell lysate was centrifuged at 10,000 × g for 30 min at 4 °C. The protein concentration was determined using the Bradford method. The supernatant (cytosolic fraction) was collected and stored at −80 °C. The clarified cytoplasm extracts, dCK standards, and blank control were added to the appropriate microtiter plate wells with a biotin-conjugated polyclonal antibody prepared specifically for dCK. Avidin conjugated to horseradish peroxidase (HRP) was added to each microplate well and incubated. Then, a TMB substrate solution was added to the plate. […] The enzyme-substrate reaction was terminated by addition of a sulfuric acid solution. The color change was measured spectrophotometrically at a wavelength of 450 nm using a microplate reader (BioTek).

dCK in THP-1 cells = assay: Deoxycytidine kinase activity, THP-1; type: cell-based, human; conditions: THP-1, 24 h incubation
Protocol: as §3

dCK in MOLT-4 cells = assay: Deoxycytidine kinase activity, MOLT-4; type: cell-based, human; conditions: MOLT-4, 24 h incubation
Protocol: as §3

HL-60 cells [4] = assay: Comet assay with proteinase K post-treatment (DNA-protein cross-links), HL-60; type: cell-based, human; conditions: HL-60, starting at 2 h of incubation
Protocol: (§4) Single cell gel electrophoresis (comet assay) was used to detect alkali labile sites, single and double DNA strand breaks, and cross-links induced by genotoxic agents. After electrophoresis and gel staining with 4,6-diamidino-2-phenylindole (DAPI), the released DNA was visible under a fluorescence microscope as a characteristic comet tail. The cells were plated on 24-well plates (20,000 cells/mL) and treated with CLA, CLA-FMOR, CLA-FPIP, or CLA-FPIR at the indicated concentrations for 2, 24, and 48 h at 37 °C. Some cells were preincubated with an ATR kinase inhibitor (VE-821) for 1 h at 37 °C before adding the tested compounds. Next, cells were collected into Eppendorf tubes and rinsed with PBS. Then, cells were suspended in 0.75% low melting point (LMP) agarose dissolved in PBS (pH 7.4) and placed on microscope slides precoated with 0.5% normal melting point (NMP) agarose. Subsequently, the slides were treated with a cooled lysis buffer (2.5 M NaCl, 100 mM EDTA, 10 mM Tris, 1% Triton X-100, pH 9.0) for 1–24 h at 4 °C. Then, slides were placed in developing buffer (300 mM NaOH, 1 mM EDTA) for 20 min. Electrophoresis was performed in […] (30 mM NaOH, 1 mM EDTA) at 29 V and 30 mA for 20 min. The samples were stained with DAPI ([…]). The slides were stored in a wet chamber at 4 °C and analyzed under a fluorescence microscope. Fifty randomly selected cells from each slide were measured using image analysis (Nikon, Japan) attached to a COHU 4910 video camera, which was equipped with a UV-1 filter block consisting of an excitation filter (359 nm) and a barrier filter (461 nm) connected to the image analysis system Lucia-Comet v. 4.51 (Czech Republic)[41]. In the samples preincubated with VE-821, the level of DNA damage associated with the ATR kinase was determined.
Because cross-links can be undetectable in the alkaline comet assay, a variant of this method including post-treatment with proteinase K (Cat no: P2308) was used. Proteinase K digests peptide bonds, releasing the cross-linked DNA […] the DNA-protein complexes without altering the structure of the DNA-DNA complexes to distinguish them. After lysis, the slides were washed three times in TE buffer (10 mM Tris, pH 10, 1 mM EDTA). The cells were treated with aliquots of proteinase K (60 µL per slide; 1 mg/mL TE buffer) for 1 h at 37 °C in a wet chamber. Further steps of the comet assay were performed as described above.

THP-1 cells [5] = assay: Comet assay with proteinase K post-treatment (DNA-protein cross-links), THP-1; type: cell-based, human; conditions: THP-1, 24 h
Protocol: as §4
Because cross-links can be undetectable in the alkaline comet assay, a variant of this method including post-treatment with proteinase K (Cat no: P2308) was used. […]

[6] = test system: caspase-3/7 in HL-60 cells; assay: Caspase 3/7 assay, HL-60; type: cell-based, human; conditions: HL-60, 48 h
Protocol: (§5) The activities of caspases-3 and −7 were estimated with CellEvent™ Caspse-3/7 Green Detection Reagent (Thermo Fisher Scientific) according to the manufacturer’s protocol. The cells were seeded on 96-well plates (15 × 10^3/ well) and 24 h later, incubated with the appropriate drugs for 24 h or 48 h. The cells were fixed by adding a final concentration of 4% paraformaldehyde solution (10 min, room temperature). Cells were labeled with CellEvent™Caspase-3/7 Green Detection Reagent (5 µM), followed by Hoechst 33342 (5 µg/ml) for 15 minutes in complete medium3. Caspase-3/7 Green Detection Reagent was diluted into PBS with 5% FBS to avoid fluorescence background. After activation of caspase-3/7 in apoptotic cells, the DEVD peptide was cleaved, enabling the dye to bind DNA, which produced a bright, fluorogenic response with absorption/emission maxima of 502/530 nm according with manufacture protocol. Fluorescence intensity was measured using a Fluoroskan Ascent FL plate reader (Labsystem, Sweden). Cysteine protease activity was expressed as a ratio of fluorescence of the drug-treated samples to the corresponding untreated controls (taken as 100%). In some experimental variants, cells were preincubated for 1 h with VE-821 (10 µM) or Z-FA-FMK (caspas-3 inhibitor, 0.5 µM) to confirm that the fluorescence observed in both control and drug-treated cells was due to the presence of caspase-3/7 in samples. The caspase 3/7 signal was normalized to the Hoechst 33342 staining intensity to account for differences in cell seeding density (description in: Intracellular calcium assay section).

[7] = test system: caspase-3/7 in MOLT-4 cells; assay: Caspase 3/7 assay, MOLT-4; type: cell-based, human; conditions: MOLT-4, 48 h
Protocol: as §5, with “After activation of caspase-3/7 in apoptotic cells, the DEVD peptide was cleaved, enabling the dye to bind DNA, which produced a bright, fluorogenic response with absorption/emission maxima of 502/530 nm according with manufacture protocol.” left out, “The caspase 3/7 signal was normalized to the Hoechst 33342 staining intensity to account for differences in cell seeding density (description in: Intracellular calcium assay section).” left out

[8] = test system: caspase-3/7 in THP-1 cells; assay: Caspase 3/7 assay, THP-1; type: cell-based, human; conditions: THP-1, 48 h
Protocol: as §5, with “After activation of caspase-3/7 in apoptotic cells, the DEVD peptide was cleaved, enabling the dye to bind DNA, which produced a bright, fluorogenic response with absorption/emission maxima of 502/530 nm according with manufacture protocol.” left out, “The caspase 3/7 signal was normalized to the Hoechst 33342 staining intensity to account for differences in cell seeding density (description in: Intracellular calcium assay section).” left out

γH2AX in HL-60 cells = assay: H2AX (phospho S139) In-Cell ELISA, HL-60; type: cell-based, human; conditions: HL-60, 48 h, versus control cells
Protocol: The level H2AX protein phosphorylated Ser139 was measured in tested leukemia cells by using of In-Cell ELISA, ICE assay kit. The cells were seeded on 96-well plates (100 × 10^3/well) and 48 h later, incubated with the appropriate compounds. In some experimental variants, cells were preincubated for 1 h with VE-821 (10 µM). The cells were fixed by adding a final concentration of 4% paraformaldehyde solution (10 min, room temperature). After 2 h of Block Solution incubation, cells were treated with a highly specific antibody. A rabbit monoclonal antibody specific to H2AX (phospho S139) was used (at 1:100, 2 h incubation). Next Secondary Antibody Solution (at 1:1000) were added to the cells. The measurements were obtained on a fluorescence plate reader at an excitation wavelength of 680 nm and emission at 694 nm. The cells were PBS washed and 100 µL of Janus Green Stain was added to each well of the plate (5 min., room temperature). The data were collected at excitation wavelength of 750 nm and emission at 800 nm channel (Fluoroskan Cary Eclipse). Antibody signal intensity was normalized to the total amount using Janus Green cell-stain.

Row | Structure (SMILES) | cytotoxicity (in words) [1] | IC50 (HL-60 cells [2]) [nM] | IC50 (HMEC-1 cells) [nM] | IC50 (THP-1 cells [3]) [nM] | IC50 (MOLT-4 cells) [nM] | further results
1 | OC[C@H]1O[C@@H](n2cnc3c(N=CN4CCCCCC4)nc(Cl)nc32)C[C@@H]1O [CLA-FHEX] | low cytotoxicity | 647 | 1080 | 172 | 348 | 
2 | CS(=O)(=O)c1ccc(-c2cnc(N)c(C(=O)Nc3ccccc3)n2)cc1 [C+VE-821, reference compound] |  |  |  |  |  | effect of ATR inhibitor on cytotoxicity of CLA and derivatives ([1]; 10 μM VE-821 preincubation, XTT 48 h): reduces the cytotoxicity of all tested compounds; dCK activity (dCK in HL-60 cells): decreased dCK activity; dCK activity (dCK in THP-1 cells): decreased dCK activity; dCK activity (dCK in MOLT-4 cells): decreased dCK activity
3 | OC[C@H]1O[C@@H](n2cnc3c(N=CN4CCCCC4)nc(Cl)nc32)C[C@@H]1O [CLA-FPIP, [6-deamino-6-(N′, N′-1′, 5′-pentamethylene formamidine)] cladribine] | high cytotoxic activity | 133 | 435 | 69 | 110 | DNA-protein cross-links after proteinase K (HL-60 cells [4]): increased the level of cross-links; DNA damage in the tail after proteinase K (THP-1 cells [5]): increased; caspase-3/7 level [6]: highest changes
4 | CN1CCN(C=Nc2nc(Cl)nc3c2ncn3[C@H]2C[C@H](O)[C@@H](CO)O2)CC1 [CLA-FPAZ] | low cytotoxicity | 190 | 710 | 168 | 353 | 
5 | CC(NC(=O)[C@H](Cc1ccccc1)NC(=O)OCc1ccccc1)C(=O)CF (some centres unmarked) [Z-FA-FMK, reference compound] |  |  |  |  |  | caspase-3/7 level [7]: totally prevented caspase activation; caspase-3/7 level [6]: totally prevented caspase activation; caspase-3/7 level [8]: totally prevented caspase activation
6 | CN(C)C=Nc1nc(Cl)nc2c1ncn2[C@H]1C[C@H](O)[C@@H](CO)O1 [CLA-FDMF, [6-deamino-6-(N′,N′-dimethyl formamidine)] cladribine] | low cytotoxicity | 184 | 412 | 220 | 220 | 
7 | Nc1nc(Cl)nc2c1ncn2[C@H]1C[C@H](O)[C@@H](CO)O1 [CLA, cladribine, reference compound] |  | 246 | 126 | 56 | 103 | increase in γH2AX level (γH2AX in HL-60 cells): ~ 2.4 fold
